In assay [1] the test system is Salmonella. The assay can be described thus: Antibacterial activity against drug-sensitive Salmonella 1287 assessed as growth inhibition by agar dilution method. The assay is classed as functional. More on the design: unit not given here. For orientation: Agar dilution tests growth on a series of plates holding different concentrations.
The subject of assay [2] is Enterococcus faecalis. The assay can be described thus: Antibacterial activity against Streptococcus faecalis 755 assessed as growth inhibition by agar dilution method. The assay is classed as functional. Set-up: unit not given here.
The subject of assay [3] is Proteus vulgaris. The assay can be described thus: Antibacterial activity against drug-sensitive Proteus vulgaris 838 assessed as growth inhibition by agar dilution method. Type of assay: functional. Set-up: unit not given here.
Assay [4] concerns Escherichia coli. The assay can be described thus: Antibacterial activity against drug-sensitive Escherichia coli 2482 assessed as growth inhibition by agar dilution method. The assay is classed as functional. Set-up: unit not given here.
Assay [5] has as its system Staphylococcus aureus. The assay can be described thus: Antibacterial activity against drug-sensitive Staphylococcus aureus 2985 assessed as growth inhibition by agar dilution method. The assay is classed as functional. Set-up: unit not given here.
Assay [6] concerns Escherichia coli. The assay can be described thus: Antibacterial activity against drug-sensitive Escherichia coli 60 assessed as growth inhibition by agar dilution method. The assay is classed as functional. More on the design: unit not given here.
Assay [7] concerns Serratia. The assay can be described thus: Antibacterial activity against unpigmented Serratia 2840 assessed as growth inhibition by agar dilution method. The assay is classed as functional. Set-up: unit not given here.
Assay [8] relates to Serratia. The assay can be described thus: Antibacterial activity against pigmented Serratia 155 assessed as growth inhibition by agar dilution method. The assay is classed as functional. More on the design: unit not given here.
For assay [9], the system named is Pseudomonas aeruginosa. The assay can be described thus: Antibacterial activity against kanamycin and gentamicin-resistant Pseudomonas aeruginosa 3033 assessed as growth inhibition by agar dilution method. Type of assay: functional.
For assay [10], the system named is Brucella. The assay can be described thus: Antibacterial activity against drug-sensitive Brucella 965 assessed as growth inhibition at => 200 ul/ml by agar dilution method. Type of assay: functional.
Another assay relates to Erwinia. The assay can be described thus: Antibacterial activity against drug-sensitive Erwinia 1159 assessed as growth inhibition by agar dilution method. Type of assay: functional. Set-up: unit not given here.
The next assay concerns Bacillus subtilis. The assay can be described thus: Antibacterial activity against drug-sensitive Bacillus subtilis 964 assessed as growth inhibition by agar dilution method. More on the design: unit not given here. The assay is classed as functional.
Assay [11] relates to Staphylococcus aureus. The assay can be described thus: Antibacterial activity against streptomycin, neomycin, kanamycin-resistant Staphylococcus aureus 2314 assessed as growth inhibition by agar dilution method. The assay is classed as functional.
In assay [12] the test system is Staphylococcus aureus. The assay can be described thus: Antibacterial activity against Staphylococcus aureus 210 assessed as growth inhibition by agar dilution method. Type of assay: functional. More on the design: unit not given here.
The subject of assay [13] is Brucella. The assay can be described thus: Antibacterial activity against drug-sensitive Brucella 965 assessed as growth inhibition by agar dilution method. Type of assay: functional. More on the design: unit not given here.
Assay [14] relates to Klebsiella. The assay can be described thus: Antibacterial activity against drug-sensitive Klebsiella 2921 assessed as growth inhibition at => 200 ul/ml by agar dilution method. The assay is classed as functional, organism-based.
Assay [15] concerns Pseudomonas aeruginosa. The assay can be described thus: Antibacterial activity against Pseudomonas aeruginosa 2956 assessed as growth inhibition at => 200 ul/ml by agar dilution method. The assay is classed as functional, organism-based.
Assay [16] relates to Pseudomonas aeruginosa. The assay can be described thus: Antibacterial activity against Pseudomonas aeruginosa 2956 assessed as growth inhibition by agar dilution method. The assay is classed as functional. Set-up: unit not given here.
For assay [17], the system named is Proteus vulgaris. The assay can be described thus: Antibacterial activity against drug-sensitive Proteus vulgaris 838 assessed as growth inhibition at => 100 ul/ml by agar dilution method. Type of assay: functional, organism-based.
The subject of assay [18] is Klebsiella. The assay can be described thus: Antibacterial activity against drug-sensitive Klebsiella 2921 assessed as growth inhibition by agar dilution method. The assay is classed as functional.
In assay [19] the test system is Enterococcus faecalis. The assay can be described thus: Antibacterial activity against Streptococcus faecalis 755 assessed as growth inhibition at => 200 ul/ml by agar dilution method. Type of assay: functional, organism-based.
For assay [20], the system named is Escherichia coli. The assay can be described thus: Antibacterial activity against streptomycin, neomycin, kanamycin, gentamicin-resistant Escherichia coli 2964 assessed as growth inhibition by agar dilution method. Type of assay: functional.
In assay [21] the test system is Pseudomonas aeruginosa. The assay can be described thus: Antibacterial activity against kanamycin and gentamicin-resistant Pseudomonas aeruginosa 3033 assessed as growth inhibition at => 200 ul/ml by agar dilution method. Type of assay: functional, organism-based.
The test system of assay [22] is Salmonella. The assay can be described thus: Antibacterial activity against drug-sensitive Salmonella 1287 assessed as growth inhibition at => 200 ul/ml by agar dilution method. The assay is classed as functional, organism-based.
Assay [23] relates to Staphylococcus aureus. The assay can be described thus: Antibacterial activity against streptomycin, neomycin, kanamycin-resistant Staphylococcus aureus 2314 assessed as growth inhibition at => 200 ul/ml by agar dilution method. The assay is classed as functional, organism-based.
In assay [24] the test system is Proteus vulgaris. The assay can be described thus: Antibacterial activity against drug-sensitive Proteus vulgaris 838 assessed as growth inhibition at => 200 ul/ml by agar dilution method. Type of assay: functional, organism-based.

Structures are written as SMILES. Converted amounts (≈) assume the structure as drawn. The source made the active and inactive calls. The calls are words filed in the database; no cut-off is given here.

As for `CC(=O)N[C@H]1[C@H](O)[C@@H](O)[C@@H](O[C@@H]([C@H](N)[C@H](O)CO)[C@@H](O)CN)O[C@@H]1CO`, the MIC with Salmonella [1] is recorded as 200; in the assay with Enterococcus faecalis [2], greater than 200; with Proteus vulgaris [3] it was 200; in the assay on Escherichia coli [4], 100; in the assay on Staphylococcus aureus [5], 200; in the assay with Escherichia coli [6], 200. Further, the MIC is greater than 200 in the assay on Serratia [7]; greater than 200 with Serratia [8]; greater than 200 µg/mL with Pseudomonas aeruginosa [9]; 100 with Erwinia; 100 in the assay on Bacillus subtilis; greater than 200 µg/mL with Staphylococcus aureus [11]. Moreover, the MIC in the assay with Staphylococcus aureus [12] and in the assay with Brucella [13] was 200 throughout. Also, the “growth inhibition (GI)” value with Brucella [10] was “inactive”.
For `CCCN[C@H]1[C@H](O)[C@@H](O)[C@@H](O[C@@H]([C@H](N)[C@H](O)CO)[C@@H](O)CN)O[C@@H]1CO`, the MIC in the assay on Salmonella [1] was 100; in the assay with Enterococcus faecalis [2] it was 200; with Pseudomonas aeruginosa [16], 200; with Proteus vulgaris [3], 200; with Escherichia coli [4] it was 200; with Staphylococcus aureus [5] it was 50. The MIC in the assay with Escherichia coli [6] is 200; with Serratia [7], 200; with Klebsiella [18], 200 uL/ml; in the assay with Pseudomonas aeruginosa [9] it was greater than 200 µg/mL; in the assay with Bacillus subtilis, 50; in the assay on Staphylococcus aureus [11], 100 µg/mL (≈ 261 µM). In addition, the MIC stood at 50 with Staphylococcus aureus [12] and 200 with Brucella [13]. Besides, the “growth inhibition (GI)” value in the assay with Klebsiella [14], in the assay with Pseudomonas aeruginosa [15], in the assay on Proteus vulgaris [17] and in the assay with Enterococcus faecalis [19] was “inactive” throughout.
Consider `NC[C@H]1O[C@H](O[C@H]2[C@H](O)[C@@H](O[C@H]3O[C@H](CO)[C@@H](O)[C@H](N)[C@H]3O)[C@H](N)C[C@@H]2N)[C@H](O)[C@@H](O)[C@@H]1O` [KANAMYCIN], for which the results for the MIC in the assay with Escherichia coli [20], in the assay on Pseudomonas aeruginosa [9] and with Staphylococcus aureus [11] were 100 µg/mL (≈ 206 µM), 100 µg/mL (≈ 206 µM) and greater than 100 µg/mL, respectively.
`CCC(=O)N[C@H]1[C@H](O)[C@@H](O)[C@@H](O[C@@H]([C@H](N)[C@H](O)CO)[C@@H](O)CN)O[C@@H]1CO`: the MIC is listed as less than 3.1 with Salmonella [1]; 200 with Enterococcus faecalis [2]; 50 in the assay on Pseudomonas aeruginosa [16]; 100 with Proteus vulgaris [3]; 50 with Escherichia coli [4]; 100 in the assay with Staphylococcus aureus [5]. The MIC with Escherichia coli [6] was 50; in the assay with Serratia [7], 200; in the assay with Serratia [8] it was greater than 200; in the assay on Pseudomonas aeruginosa [9] it was 100 µg/mL (≈ 252 µM); in the assay on Erwinia, less than 3.1; with Bacillus subtilis it was 50. Further, the MIC was determined as 200 µg/mL (≈ 503 µM) with Staphylococcus aureus [11], 50 in the assay with Staphylococcus aureus [12] and 100 with Brucella [13].
For the compound `CCCC(=O)N[C@H]1[C@H](O)[C@@H](O)[C@@H](O[C@@H]([C@H](N)[C@H](O)CO)[C@@H](O)CN)O[C@@H]1CO`, the “growth inhibition (GI)” value in the assay with Pseudomonas aeruginosa [21], in the assay on Salmonella [22], in the assay with Staphylococcus aureus [23], with Proteus vulgaris [24], in the assay with Pseudomonas aeruginosa [15] and with Enterococcus faecalis [19] was “inactive” throughout. Besides, the MIC with Salmonella [1], in the assay on Enterococcus faecalis [2], with Pseudomonas aeruginosa [16], with Proteus vulgaris [3], in the assay on Escherichia coli [4] and with Staphylococcus aureus [5] was 200 throughout. Further, the MIC is listed as 200 in the assay on Escherichia coli [6]; 200 in the assay with Serratia [7]; greater than 200 with Serratia [8]; 200 uL/ml in the assay on Klebsiella [18]; greater than 200 in the assay with Erwinia; 100 with Bacillus subtilis. In addition, the MIC in the assay with Staphylococcus aureus [12] is 200.
As for `CCC(=O)N[C@H]1[C@H](O)[C@@H](O)[C@@H](O[C@@H]([C@H](N)[C@H](O)CO)[C@@H](O)CN)O[C@@H]1CCl`, the MIC is 50 in the assay on Salmonella [1]; 200 in the assay on Enterococcus faecalis [2]; 100 with Pseudomonas aeruginosa [16]; 200 in the assay on Proteus vulgaris [3]; 100 in the assay on Escherichia coli [4]; 50 with Staphylococcus aureus [5]. For the same compound, the MIC was 100 in the assay on Escherichia coli [6]; 100 in the assay with Serratia [7]; 200 with Serratia [8]; 50 uL/ml in the assay with Klebsiella [18]; greater than 25 in the assay on Erwinia; 50 with Bacillus subtilis. The MIC amounted to 200 µg/mL (≈ 481 µM) in the assay on Staphylococcus aureus [11], 50 in the assay with Staphylococcus aureus [12] and 100 in the assay with Brucella [13].

The values are drawn from ChEMBL document CHEMBL3244216, “Chemical modification of 1,4-diamino-1,4-dideoxy-3-O-(4-deoxy-4-propionamido-alpha-D-glucopyranosyl)-D-glucitol” (1978).
